Results published in publication PMC10647805 (2023).

Legend:
[1] = system: h-TELO (DNA, G4) AGGGTTAGGGTTAGGGTTAGGGT; assay: UV-Vis titration; details: K+ (100 mM KF, 10 mM potassium phosphate); PBS pH 7.4, ca. 20 °C; 5 μM DNA; 1:1 fit
[2] = system: dsDNA (DNA, hairpin, HEG linker (non-nucleotide loop) between 10 and 11) TATAGCTATATATAGCTATA; assay: UV-Vis titration; details: K+ (100 mM KF, 10 mM potassium phosphate); PBS pH 7.4, ca. 20 °C; 5 μM DNA; 1:1 fit; per base
[3] = system: TBA (DNA, G4) GGTTGGTGTGGTTGG; assay: variable-temperature CD; details: K+ (100 mM KF, 10 mM potassium phosphate); PBS pH 7.4; 5 μM DNA, 5 equivalents (25 μM) compound
[4] = system: h-TELO (DNA, G4) AGGGTTAGGGTTAGGGTTAGGGT; assay: variable-temperature CD; details: K+ (100 mM KF, 10 mM potassium phosphate); PBS pH 7.4; 5 μM DNA, 5 equivalents (25 μM) compound
[5] = system: c-KIT1 (DNA, G4) GGGAGGGCGCTGGGAGGAGGG; assay: variable-temperature CD; details: K+ (100 mM KF, 10 mM potassium phosphate); PBS pH 7.4; 2 μM DNA, 5 equivalents (10 μM) compound
[6] = system: dsDNA (DNA, hairpin, HEG linker (non-nucleotide loop) between 10 and 11) TATAGCTATATATAGCTATA; assay: variable-temperature CD; details: K+ (100 mM KF, 10 mM potassium phosphate); PBS pH 7.4; 5 μM DNA, 5 equivalents (25 μM) compound; per base
[7] = system: c-KIT1 (DNA, G4) GGGAGGGCGCTGGGAGGAGGG; assay: UV-Vis titration; details: K+ (100 mM KF, 10 mM potassium phosphate); PBS pH 7.4, ca. 20 °C; 2 μM DNA; 1:1 fit

Row | KD [1] [µM] | KD [2] [µM] | ΔTm [3] [°C] | ΔTm [4] [°C] | ΔTm [5] [°C] | ΔTm [6] [°C] | KD [7] [µM] | Compound
1 | 11.0 ± 3.1 | 23.6 ± 8.4 | −0.1 | 1.7 | – | – | – | CC(C)C[C@@H](CC(=O)O)N1C(=O)c2ccc3c4c(ccc(c24)C1=O)C(=O)N([C@H](CC(=O)O)CC(C)C)C3=O
2 | – | 30.7 ± 6.9 | – | – | 1.7 | – | 8.0 ± 2.5 | CC(C)(C)OC(=O)N[C@H](CN1C(=O)c2ccc3c4c(ccc(c24)C1=O)C(=O)N(C[C@@H](NC(=O)OC(C)(C)C)C(=O)O)C3=O)C(=O)O
3 | – | – | 0.8 | – | – | −0.1 | – | O=C(O)[C@@H](O)[C@@H](Cc1ccccc1)N1C(=O)c2ccc3c4c(ccc(c24)C1=O)C(=O)N([C@H](Cc1ccccc1)[C@H](O)C(=O)O)C3=O

Further lines, the compound ahead of its results:

Row | Compound | KD [1] [µM] | KD [2] [µM] | ΔTm [3] [°C] | ΔTm [4] [°C] | ΔTm [5] [°C] | ΔTm [6] [°C] | KD [7] [µM]
4 | CC(C)C[C@H](CC(=O)O)N1C(=O)c2ccc3c4c(ccc(c24)C1=O)C(=O)N([C@@H](CC(=O)O)CC(C)C)C3=O | 13.6 ± 3.4 | 50.2 ± 15.4 | – | – | −0.9 | – | –
5 | C[C@@H](CC(=O)O)N1C(=O)c2ccc3c4c(ccc(c24)C1=O)C(=O)N([C@@H](C)CC(=O)O)C3=O | – | – | – | 0.2 | – | −2.1 | –
6 | O=C(O)[C@@H](O)CN1C(=O)c2ccc3c4c(ccc(c24)C1=O)C(=O)N(C[C@H](O)C(=O)O)C3=O | – | – | – | – | 3.2 | – | –
7 | CC(C)(C)OC(=O)N[C@@H](CN1C(=O)c2ccc3c4c(ccc(c24)C1=O)C(=O)N(C[C@H](NC(=O)OC(C)(C)C)C(=O)O)C3=O)C(=O)O | – | 65.2 ± 35.9 | 0.1 | 2.4 | 5.4 | – | 2.6 ± 0.4
